According to publication PMC7613620, “Reaction hijacking of tyrosine tRNA synthetase as a whole-of-life-cycle antimalarial strategy” (Science (New York, N.Y.), 2022):

Legend:
PfYRS = PfYRS (Plasmodium falciparum, UniProt Q8IAR7); assay: biochemical; type: binding; conditions: PfYRS incubated with ML901 in the presence of Tyr, ATP and tRNATyr
Description: 804 An intron was detected in the PftRNATyr sequence, that was not indicated in PlasmoDB. A T7 RNA
805 polymerase promoter sequence was added to the 5’ end of the DNA sequence of P. falciparum and H.
806 sapiens tRNATyr. This DNA template and its complementary strand were custom-synthesized by Sigma-
807 Aldrich. Two oligonucleotides were annealed at 95°C for 5 min and the double-stranded DNA template
808 was used for in vitro transcription. The transcription reaction was incubated at 37°C overnight. The reaction
809 mixture consists of template DNA, T7 RNA polymerase and NTP mix as per manufacturer's instructions
810 (HiScribe™ T7 Quick High Yield RNA Synthesis Kit, NEB). On the following day, the reaction mixture
811 was treated with DNase I at 37°C for 15 min. tRNA was purified using RNA clean-up spin columns
812 (Monarch® RNA Cleanup Kit, NEB) to remove contaminants from the transcription reaction.
814 Differential scanning fluorimetry (DSF)
815 PfYRS and HsYRS at 0.1 mg/ml were incubated with various substrates at 37°C for 1-3 h. PfYRS was
816 assayed in 25 mM Tris, pH 8, 150 mM NaCl, 5 mM MgCl2 and 1 mM TCEP. HsYRS was assayed in 50
817 mM Tris, pH 7.5, 150 mM NaCl, 50 mM KCl, 5 mM MgCl2 and 1 mM TCEP. SYPRO Orange (Sigma-
818 Aldrich; 5,000X concentrate in DMSO) was added to the reaction mixture at a final concentration of 2.5X.
819 25 µL of the sample was added into each well of a 96-well qPCR plate (Applied Biosystems). The plate
820 was sealed and analysed using StepOnePlus Real-Time PCR system (Applied Biosystems). The samples
821 were heated from 20°C to 90°C with a 1% continuous gradient. The thermal unfolding curve was plotted
822 as the first derivative curve of the raw fluorescence values. The melting temperature (Tm), defined as the
823 peak of the first derivative curve, was used to assess the thermal stability of protein-ligand complexes. KD
824 values were calculated from DTm using the equation: ln(KD/[L]) = -131.5 x (∆Tm/Tm,apo) - 1.9, where [L]
825 is the concentration of ligand and T is the temperature in Kelvin (40). […]

[1] = tested on: P. falciparum NF54 liver stage parasites; assay: P. falciparum NF54 schizont development in primary human hepatocytes; type: cell-based; conditions: Plasmodium falciparum, NF54, Hepatocyte, 96 h
human Atg7 = human Atg7 (Homo sapiens, UniProt O95352); assay: E1-E2 transthiolation HTRF assay, ATG7 (RH-GABARAP); type: biochemical
Source text: 592 E1-E2 Transthiolation Assays
593 An Homogeneous Time-Resolved Fluorescence (HTRF) enzyme assay was employed to evaluate
594 compound activity against ATG7 as previously described (11). In this assay, a Flag-tagged ATG8 homolog
595 (GABA type A receptor-associated protein; GABARAP) is activated by ATG7 and then transthiolated to a
596 GST-tagged E2 (ATG3). The product of the enzyme reaction, Flag-GABARAP-ATG3-GST, is quantified
597 by measuring FRET between Europium-Cryptate labelled monoclonal anti-Flag M2 (CisBio International,
598 Cat# 61FG2KLB) and PHYCOLINK goat anti-GST allophycocyanin (Prozyme, PJ252p1). […]
606 Compounds were incubated with mature stage V gametocytes ([…], kind gift from Professor Chris Janse
607 at Leiden University Medical Center (LUMC), the Netherlands) for 48 hours in 384 well plates before
608 gamete formation was triggered by a drop in temperature and addition of xanthurenic acid. […]
611 Multiple data sets using different gametocyte cultures were collected on each of two separate days.
613 Activity against exoerythrocytic stages
614 Primary human hepatocytes (H1500.H15B+ Lot No. HC10-10 Cryopreserved human hepatocytes)
615 were cultured for 2 days and then overlaid with P. falciparum NF54 sporozoites and compounds.
616 Supernatant was refreshed daily with fresh compounds.

human Atg7, sequence (O95352 whole entry): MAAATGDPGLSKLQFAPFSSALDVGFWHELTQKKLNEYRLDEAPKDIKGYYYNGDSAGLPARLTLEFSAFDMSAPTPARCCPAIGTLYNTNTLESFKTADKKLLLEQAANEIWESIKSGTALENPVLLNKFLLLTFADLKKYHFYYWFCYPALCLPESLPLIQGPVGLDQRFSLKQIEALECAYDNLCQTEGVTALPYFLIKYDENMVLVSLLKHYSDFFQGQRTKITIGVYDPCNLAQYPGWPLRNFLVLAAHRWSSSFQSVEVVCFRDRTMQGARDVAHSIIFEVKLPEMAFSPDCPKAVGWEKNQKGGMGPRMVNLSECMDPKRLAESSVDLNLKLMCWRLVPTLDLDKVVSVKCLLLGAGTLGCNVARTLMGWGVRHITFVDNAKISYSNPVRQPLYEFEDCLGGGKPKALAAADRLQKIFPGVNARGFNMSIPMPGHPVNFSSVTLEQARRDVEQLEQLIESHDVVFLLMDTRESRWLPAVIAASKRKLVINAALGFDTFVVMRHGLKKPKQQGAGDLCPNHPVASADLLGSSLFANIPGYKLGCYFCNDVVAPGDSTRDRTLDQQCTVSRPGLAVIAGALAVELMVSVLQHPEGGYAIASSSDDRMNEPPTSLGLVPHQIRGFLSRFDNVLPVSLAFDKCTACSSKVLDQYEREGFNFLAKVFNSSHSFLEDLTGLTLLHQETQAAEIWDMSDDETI
PfYRS, sequence (Q8IAR7 entry or part of it): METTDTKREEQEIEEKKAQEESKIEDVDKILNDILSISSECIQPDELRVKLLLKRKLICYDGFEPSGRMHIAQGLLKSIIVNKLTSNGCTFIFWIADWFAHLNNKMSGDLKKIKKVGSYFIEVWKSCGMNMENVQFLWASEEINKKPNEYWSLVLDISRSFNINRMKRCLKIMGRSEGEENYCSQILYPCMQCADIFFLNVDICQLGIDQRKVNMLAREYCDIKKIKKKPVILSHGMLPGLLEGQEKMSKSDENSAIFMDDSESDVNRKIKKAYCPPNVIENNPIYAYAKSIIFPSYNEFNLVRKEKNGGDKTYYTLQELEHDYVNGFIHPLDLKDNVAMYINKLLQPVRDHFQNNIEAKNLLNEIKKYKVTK

Nc1ncnc2c1c(OC(F)F)nn2[C@@H]1O[C@H](COS(N)(=O)=O)[C@@H](O)[C@H]1O [ML901]
increase of apparent protein melting point (Tm) (PfYRS): 15 °C | IC50 [1]: 13 ± 5 nM | IC50 (human Atg7): 33 nM
